The numbers were not newly measured in patent US20030216635A1, “Method and system for monitoring pancreatic pathologies” (priority 2000, published 2003), which cites them from elsewhere.

For the data set the following is noted: value substituted into equation 1.3; set up at 4.7 Tesla.

On to `O=C([O-])CN(CCN(CC(=O)[O-])CC(=O)O)CCN(CC(=O)[O-])CC(=O)O.[Gd+3]` [GdDTPA, gadolinium-diethylenetriamine-pentaacetic-acid], for which the “Relaxivity constant R” value is recorded as 4.3 mM^−1 sec ^−1.
